Experiments:
Mus musculus [1] = assay: Anticocaine activity was assessed through attenuation of convulsions caused by the intraperitoneal administration of cocaine 60 mg/kg in mice; type: functional
Sigma 2 receptor = assay: Binding affinity towards Sigma-2 receptor
[2] = biological target: Sigma non-opioid intracellular receptor 1 (Homo sapiens, UniProt Q99720); assay: Binding affinity towards Sigma-1 receptor
Mus musculus [3] = assay: Anticocaine activity was assessed through attenuation of convulsions caused by the intraperitoneal administration of cocaine 60 mg/kg in mice; Agonist activity exacerbated the convulsive effects of cocaine; type: functional, organism-based; design: dose 60 mg/kg; conditions: filed as agonist

Chain of Sigma non-opioid intracellular receptor 1 (Q99720 whole entry): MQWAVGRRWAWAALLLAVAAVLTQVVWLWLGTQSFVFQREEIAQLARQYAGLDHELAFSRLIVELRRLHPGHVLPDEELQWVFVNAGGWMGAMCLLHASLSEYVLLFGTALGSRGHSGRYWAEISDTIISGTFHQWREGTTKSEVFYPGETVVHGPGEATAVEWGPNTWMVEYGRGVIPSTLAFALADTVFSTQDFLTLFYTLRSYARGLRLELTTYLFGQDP

SMILES: CN(CCc1ccc(Cl)c(Cl)c1)CCN1CCCC1
- AD50 (Mus musculus [1]): 2 mg/kg
- Ki (Sigma 2 receptor): 8 nM

SMILES: Clc1ccccc1CN1CCN(Cc2ccccc2)CC1
- AD50 (Mus musculus [1]): 15 mg/kg
- Ki [2]: 5.3 nM
- Ki (Sigma 2 receptor): 527 nM

SMILES: Clc1ccc(CN2CCN(Cc3ccccc3)CC2)cc1Cl
- Ki [2]: 0.58 nM
- AD50 (Mus musculus [3]): Agonist activity exacerbated the convulsive effects of cocaine
- Ki (Sigma 2 receptor): 7.54 nM

SMILES: c1ccc(CN2CCN(Cc3ccccc3)CC2)cc1
- AD50 (Mus musculus [1]): 23 mg/kg
- Ki (Sigma 2 receptor): 1270 nM

SMILES: Clc1cccc(CN2CCN(Cc3ccccc3)CC2)c1
- AD50 (Mus musculus [1]): 8 mg/kg
- Ki [2]: 0.46 nM
- Ki (Sigma 2 receptor): 56.4 nM

SMILES: COc1ccc(CN2CCN(Cc3ccccc3)CC2)cc1
- AD50 (Mus musculus [1]): 27 mg/kg
- Ki [2]: 0.47 nM
- Ki (Sigma 2 receptor): 161 nM

SMILES: Clc1ccc(CN2CCN(Cc3ccccc3)CC2)c(Cl)c1
- AD50 (Mus musculus [1]): 16 mg/kg
- Ki [2]: 7.6 nM
- Ki (Sigma 2 receptor): 123 nM

SMILES: Clc1ccc(CN2CCN(Cc3ccccc3)CC2)cc1
- AD50 (Mus musculus [1]): 29 mg/kg
- Ki [2]: 1.4 nM
- Ki (Sigma 2 receptor): 187 nM

SMILES: COc1cccc(CN2CCN(Cc3ccccc3)CC2)c1
- AD50 (Mus musculus [1]): 17 mg/kg
- Ki [2]: 0.39 nM
- Ki (Sigma 2 receptor): 108 nM

Reference: ChEMBL document CHEMBL1136602 (Bioorg Med Chem Lett, 2003)
